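1) Cells in 96-well plates. 2) Compound, 48 h, 5 concentrations. 3) Linear interpolation between surrounding doses. 4) Unreached endpoint = highest concentration. TGI: total growth inhibition.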
Legend:
Assay in all cases: NCI tumour cell line growth inhibition, 48 h
SK-OV-3 ovarian = tested on: SK-OV-3 ovarian
LOX IMVI melanoma = tested on: LOX IMVI melanoma
SF-268 CNS = tested on: SF-268 CNS
RXF 393 renal = tested on: RXF 393 renal
MALME-3M melanoma = tested on: MALME-3M melanoma
HOP-62 NSCLC = tested on: HOP-62 NSCLC
SK-MEL-2 melanoma = tested on: SK-MEL-2 melanoma
COLO 205 colon = tested on: COLO 205 colon
786-0 renal = tested on: 786-0 renal
SR leukemia = tested on: SR leukemia
TK-10 renal = tested on: TK-10 renal
A498 renal = tested on: A498 renal
HCT-116 colon = tested on: HCT-116 colon
UACC-257 melanoma = tested on: UACC-257 melanoma
HT29 colon = tested on: HT29 colon
SNB-75 CNS = tested on: SNB-75 CNS
NCI-H460 lung = tested on: NCI-H460 lung
SF-295 CNS = tested on: SF-295 CNS
MCF7 breast = tested on: MCF7 breast

| SMILES | TGI (SK-OV-3 ovarian) [µM] | TGI (LOX IMVI melanoma) [µM] | TGI (SF-268 CNS) [µM] | TGI (RXF 393 renal) [µM] | TGI (MALME-3M melanoma) [µM] | TGI (HOP-62 NSCLC) [µM] | TGI (SK-MEL-2 melanoma) [µM] | TGI (COLO 205 colon) [µM] | TGI (786-0 renal) [µM] | TGI (SR leukemia) [µM] | TGI (TK-10 renal) [µM] | TGI (A498 renal) [µM] | TGI (HCT-116 colon) [µM] | TGI (UACC-257 melanoma) [µM] | TGI (HT29 colon) [µM] | TGI (SNB-75 CNS) [µM] | TGI (NCI-H460 lung) [µM] | TGI (SF-295 CNS) [µM] | TGI (MCF7 breast) [µM] |
| --- | --- | --- | --- | --- | --- | --- | --- | --- | --- | --- | --- | --- | --- | --- | --- | --- | --- | --- | --- |
| CC(C)=CC1C[C@H](C2CC=C3C2(C)CCC2[C@@]3(C)C(=O)CC3[C@]2(C)C=CC(=O)[C@]3(C)CO)CO1 (stereo partly specified) | 39.6 | 9.45 | 23.1 | 23.2 | 16.8 | 30.6 | 14.8 | 27.2 | 15.7 | 10.8 | 52.4 | 23.2 | 10.2 | 30.8 | 18.2 | 23.1 | 25.4 | 32.1 |  |
| O=C(O)c1cc(CC2Cc3cc4c(cc3C2=O)CCC4)cc2c1CCC2 (stereo unspecified) | > 100 | > 100 | > 100 |  | > 100 | > 100 | > 100 | > 100 | > 100 | > 100 | > 100 | > 100 | > 100 | > 100 | > 100 | > 100 | > 100 | > 100 | > 100 |
| C=C(CCOC)CCC1CCCCC(=C)[C@H]1OC(C)=O (stereo partly specified) | > 100 | > 100 | > 100 |  |  | > 100 | > 100 | > 100 | > 100 | > 100 | > 100 | > 100 | > 100 | > 100 | > 100 | > 100 | > 100 | > 100 | > 100 |
| COC(=O)/C=C\COCC1C2CCC(=O)C21 (stereo unspecified) | > 25 | > 25 | > 25 | > 25 | 13.3 | > 25 | > 25 | > 25 | > 25 | > 25 | > 25 |  | > 25 | > 25 | > 25 | > 25 | 24.3 | > 25 | > 25 |
| CCc1cccc(C(C)(C)C)c1NC(=S)N/C=C(/C#N)C(N)=O | > 100 | > 100 | > 100 | > 100 | > 100 | > 100 | > 100 | > 100 | > 100 |  |  | > 100 | > 100 | > 100 | > 100 | > 100 | > 100 | > 100 | > 100 |
| COc1ccc(/C=C2\CCC(CNc3ccc(S(N)(=O)=O)cc3)C2=O)cc1 (stereo unspecified) | > 100 | 23.8 | 54.4 | 35.3 | 36 | > 85.6 | > 100 | 34.4 | 11.2 |  | 34.9 | > 86 | 22.9 | 40.2 | 25.9 | 76.2 | > 77.2 | > 100 | 14.7 |
